Converted amounts (≈) assume the structure as drawn.
Columns and labels:
Assay in all cases: in vitro antibacterial evaluation, MIC by broth dilution
Format in all cases: cell-based
Streptococcus sp. = conditions: broth dilution, 18 hours at 35° C.; for MIC Streptococcus pneumoniae (ATCC 6301): strain ATCC 6301; for MIC Streptococcus pneumoniae (GC 1894): strain GC 1894; for MIC Streptococcus pyogenes (GC 4563): strain GC 4563; for MIC Streptococcus agalactiae (GC 4564): strain GC 4564; for MIC Streptococcus pneumoniae (GC 4565): strain GC 4565
Method in brief: (§1)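 Test organisms, which included recent clinical isolates resistant to methicillin, penicillin and/or vancomycin, were inoculated at 5×10^5 CFU/mL into Muller-Hinton II […] containing antibiotic at 64-0.06 μg/mL. Minimum inhibitory concentrations were then read as the lowest level inhibiting growth.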

Staphylococcus sp. = conditions: broth dilution, 18 hours at 35° C.; for MIC Staphylococcus aureus (GC 1131): strain GC 1131
Method in brief: as §1

Escherichia coli = test system: Escherichia coli
Method in brief: as §1

Enterococcus sp. = conditions: broth dilution, 18 hours at 35° C.; for MIC Enterococcus faecalis (ATCC 29212): strain ATCC 29212; for MIC Enterococcus faecalis (GC 2242): strain GC 2242; for MIC Enterococcus faecium (GC 2243): strain GC 2243; for MIC Enterococcus faecalis (GC 2691): strain GC 2691; for MIC Enterococcus faecalis (GC 3059): strain GC 3059; for MIC Enterococcus faecalis (GC 4552): strain GC 4552; for MIC Enterococcus faecalis (GC 4553): strain GC 4553; for MIC Enterococcus faecalis (GC 4554): strain GC 4554; for MIC Enterococcus faecium (GC 4556): strain GC 4556; for MIC Enterococcus faecium (GC 4557): strain GC 4557; for MIC Enterococcus avium (GC 4558): strain GC 4558; for MIC Enterococcus faecalis (GC 6189): strain GC 6189
Method in brief: as §1

For `CCOc1cc(C2OCC3OC(OC4C(CO)OC(Oc5ccc(CC6NC(=O)C(C(C)c7ccccc7)NC(=O)CNC(=O)C(CO)NC(=O)C(C(O)C7CNC(=N)N7C7OC(CO)C(O)C(O)C7O)NC(=O)C(C(O)C7CNC(=N)N7)NC6=O)cc5)C(O)C4O)C(O)C(O)C3O2)ccc1[N+](=O)[O-]` (centres unmarked) [Example 167], which “MIC Streptococcus pneumoniae (ATCC 6301)” value (Streptococcus sp.; inoculum 5×10^5 CFU/mL) is on record?
Its value is 1 µg/mL (≈ 0.679 µM).

And the “MIC Streptococcus pneumoniae (GC 1894)” value (Streptococcus sp.; inoculum 5×10^5 CFU/mL)?
The value was 0.25 µg/mL (≈ 0.17 µM).

And the “MIC Streptococcus pyogenes (GC 4563)” value (Streptococcus sp.; inoculum 5×10^5 CFU/mL)?
Its value is 1 µg/mL (≈ 0.679 µM).

And the “MIC Streptococcus agalactiae (GC 4564)” value (Streptococcus sp.; inoculum 5×10^5 CFU/mL)?
The value was 2 µg/mL (≈ 1.36 µM).

What about the “MIC Streptococcus pneumoniae (GC 4565)” value (Streptococcus sp.; inoculum 5×10^5 CFU/mL) of the same molecule?
The value was 1 µg/mL (≈ 0.679 µM).

What about the “MIC Streptococcus pneumoniae (ATCC 6301)” value (Streptococcus sp.) of the same molecule?
Its value is 1 µg/mL (≈ 0.679 µM).

And the “MIC Streptococcus pneumoniae (GC 1894)” value (Streptococcus sp.)?
Its value is 0.25 µg/mL (≈ 0.17 µM).

And the “MIC Streptococcus pyogenes (GC 4563)” value (Streptococcus sp.)?
The value was 1 µg/mL (≈ 0.679 µM).

And the “MIC Streptococcus agalactiae (GC 4564)” value (Streptococcus sp.)?
The value was 2 µg/mL (≈ 1.36 µM).

What about the “MIC Streptococcus pneumoniae (GC 4565)” value (Streptococcus sp.) of the same molecule?
Its value is 1 µg/mL (≈ 0.679 µM).

What about the “MIC Staphylococcus aureus (GC 1131)” value (Staphylococcus sp.; inoculum 5×10^5 CFU/mL) of the same molecule?
The value was 16 µg/mL (≈ 10.9 µM).

What about the “MIC Staphylococcus aureus (ATCC 29213)” value (Staphylococcus sp.; strain ATCC 29213) of the same molecule?
Its value is 16 µg/mL (≈ 10.9 µM).

And the “MIC Staphylococcus aureus (GC 1131)” value (Staphylococcus sp.)?
Its value is 16 µg/mL (≈ 10.9 µM).

What about the “MIC Staphylococcus aureus (GC 3051)” value (Staphylococcus sp.; strain GC 3051) of the same molecule?
Its value is 16 µg/mL (≈ 10.9 µM).

And the “MIC Staphylococcus aureus (GC 3053)” value (Staphylococcus sp.; strain GC 3053)?
The value was 16 µg/mL (≈ 10.9 µM).

And the “MIC Staphylococcus aureus (GC 4541)” value (Staphylococcus sp.; strain GC 4541)?
The value was 8 µg/mL (≈ 5.43 µM).

And the “MIC Staphylococcus aureus (GC 4542)” value (Staphylococcus sp.; strain GC 4542)?
Its value is 16 µg/mL (≈ 10.9 µM).

What about the “MIC Staphylococcus aureus-SMITH (GC 4543)” value (Staphylococcus sp.; strain GC 4543) of the same molecule?
The value was 16 µg/mL (≈ 10.9 µM).

And the “MIC Staphylococcus aureus (GC 4544)” value (Staphylococcus sp.; strain GC 4544)?
Its value is 16 µg/mL (≈ 10.9 µM).

What about the “MIC Staphylococcus aureus (GC 4545)” value (Staphylococcus sp.; strain GC 4545) of the same molecule?
Its value is 16 µg/mL (≈ 10.9 µM).

What about the “MIC Staphylococcus haemolyticus (GC 4546)” value (Staphylococcus sp.; strain GC 4546) of the same molecule?
Its value is 16 µg/mL (≈ 10.9 µM).

What about the “MIC Coagulase Negative Staphylococcus (GC 4547)” value (Staphylococcus sp.; strain GC 4547) of the same molecule?
Its value is 8 µg/mL (≈ 5.43 µM).

What about the “MIC Coagulase Negative Staphylococcus (GC 4548)” value (Staphylococcus sp.; strain GC 4548) of the same molecule?
The value was 8 µg/mL (≈ 5.43 µM).

And the “MIC Coagulase Negative Staphylococcus (GC 4549)” value (Staphylococcus sp.; strain GC 4549)?
The value was 8 µg/mL (≈ 5.43 µM).

And the “MIC Coagulase Negative Staphylococcus (GC 4551)” value (Staphylococcus sp.; strain GC 4551)?
Its value is 16 µg/mL (≈ 10.9 µM).

And the “MIC Coagulase Negative Staphylococcus (GC 6257)” value (Staphylococcus sp.; strain GC 6257)?
The value was 8 µg/mL (≈ 5.43 µM).

And the “MIC Escherichia coli (ATCC 25922)” value (Escherichia coli; strain ATCC 25922, 18 hours at 35° C.)?
Its value is greater than 128 µg/mL.

What about the “MIC Escherichia coli (GC 4559)” value (Escherichia coli; strain GC 4559, 18 hours at 35° C.) of the same molecule?
The value was greater than 128 µg/mL.

And the “MIC Escherichia coli (GC 4560)” value (Escherichia coli; strain GC 4560, 18 hours at 35° C.)?
Its value is 8 µg/mL (≈ 5.43 µM).

And the “MIC Enterococcus faecalis (ATCC 29212)” value (Enterococcus sp.; inoculum 5×10^5 CFU/mL)?
The value was 32 µg/mL (≈ 21.7 µM).

What about the “MIC Enterococcus faecalis (GC 2242)” value (Enterococcus sp.; inoculum 5×10^5 CFU/mL) of the same molecule?
The value was 32 µg/mL (≈ 21.7 µM).

And the “MIC Enterococcus faecium (GC 2243)” value (Enterococcus sp.; inoculum 5×10^5 CFU/mL)?
Its value is 32 µg/mL (≈ 21.7 µM).

And the “MIC Enterococcus faecalis (GC 2691)” value (Enterococcus sp.; inoculum 5×10^5 CFU/mL)?
The value was 32 µg/mL (≈ 21.7 µM).

And the “MIC Enterococcus faecalis (GC 3059)” value (Enterococcus sp.; inoculum 5×10^5 CFU/mL)?
The value was 32 µg/mL (≈ 21.7 µM).

What about the “MIC Enterococcus faecalis (GC 4552)” value (Enterococcus sp.; inoculum 5×10^5 CFU/mL) of the same molecule?
Its value is 32 µg/mL (≈ 21.7 µM).

And the “MIC Enterococcus faecalis (GC 4553)” value (Enterococcus sp.; inoculum 5×10^5 CFU/mL)?
Its value is 32 µg/mL (≈ 21.7 µM).

And the “MIC Enterococcus faecalis (GC 4554)” value (Enterococcus sp.; inoculum 5×10^5 CFU/mL)?
The value was 32 µg/mL (≈ 21.7 µM).

What about the “MIC Enterococcus faecium (GC 4556)” value (Enterococcus sp.; inoculum 5×10^5 CFU/mL) of the same molecule?
Its value is 32 µg/mL (≈ 21.7 µM).

What about the “MIC Enterococcus faecium (GC 4557)” value (Enterococcus sp.; inoculum 5×10^5 CFU/mL) of the same molecule?
Its value is 8 µg/mL (≈ 5.43 µM).

And the “MIC Enterococcus avium (GC 4558)” value (Enterococcus sp.; inoculum 5×10^5 CFU/mL)?
Its value is 32 µg/mL (≈ 21.7 µM).

And the “MIC Enterococcus faecalis (GC 6189)” value (Enterococcus sp.; inoculum 5×10^5 CFU/mL)?
Its value is 32 µg/mL (≈ 21.7 µM).

What about the “MIC Enterococcus faecalis (ATCC 29212)” value (Enterococcus sp.) of the same molecule?
Its value is 32 µg/mL (≈ 21.7 µM).

And the “MIC Enterococcus faecalis (GC 2242)” value (Enterococcus sp.)?
Its value is 32 µg/mL (≈ 21.7 µM).

And the “MIC Enterococcus faecium (GC 2243)” value (Enterococcus sp.)?
The value was 32 µg/mL (≈ 21.7 µM).

What about the “MIC Enterococcus faecalis (GC 2691)” value (Enterococcus sp.) of the same molecule?
Its value is 32 µg/mL (≈ 21.7 µM).

And the “MIC Enterococcus faecalis (GC 3059)” value (Enterococcus sp.)?
The value was 32 µg/mL (≈ 21.7 µM).

And the “MIC Enterococcus faecalis (GC 4552)” value (Enterococcus sp.)?
Its value is 32 µg/mL (≈ 21.7 µM).

What about the “MIC Enterococcus faecalis (GC 4553)” value (Enterococcus sp.) of the same molecule?
Its value is 32 µg/mL (≈ 21.7 µM).

What about the “MIC Enterococcus faecalis (GC 4554)” value (Enterococcus sp.) of the same molecule?
The value was 32 µg/mL (≈ 21.7 µM).

And the “MIC Enterococcus faecium (GC 4556)” value (Enterococcus sp.)?
The value was 32 µg/mL (≈ 21.7 µM).

What about the “MIC Enterococcus faecium (GC 4557)” value (Enterococcus sp.) of the same molecule?
Its value is 8 µg/mL (≈ 5.43 µM).

What about the “MIC Enterococcus avium (GC 4558)” value (Enterococcus sp.) of the same molecule?
Its value is 32 µg/mL (≈ 21.7 µM).

What about the “MIC Enterococcus faecalis (GC 6189)” value (Enterococcus sp.) of the same molecule?
The value was 32 µg/mL (≈ 21.7 µM).
